Tested on: H9-derived spinal cord NSCs
Assay: Long-term maintenance and expansion of spinal cord NSCs in neural maintenance media
Type: cell-based, human
Details: for effect of omission from maintenance media on cultures: omission of the component, data not shown

CNC1CCC(N(Cc2cccc(-c3ccncc3)c2)C(=O)c2sc3c(F)ccc(F)c3c2Cl)CC1 (stereo not drawn) [Hh-Ag1.5]
effect on dorso-ventral polarity of induced cells (NKX6.1, PAX6) (18 days after neural induction): disrupted dorso-ventral polarity | effect of omission from maintenance media on cultures: failure to sustain cultures over time

Cc1c[nH]c(-c2cnc(NCCNc3ccc(C#N)cn3)nc2-c2ccc(Cl)cc2Cl)n1 [CHIR]
effect of omission from maintenance media on cultures: failure to sustain cultures over time

Source: patent US11773369B2, “Generation of human spinal cord neural stem cells” (THE REGENTS OF THE UNIVERSITY OF CALIFORNIA, priority 2018, dated 2023)
